Measured values taken from ChEMBL document CHEMBL3751767, “Synthesis, in vitro and in vivo anticancer activities of novel 4-substituted 1,2-bis(4-chlorophenyl)-pyrazolidine-3,5-dione derivatives” (Medchemcomm, 2015).

Tests used:
[1] = Cytotoxicity against human SMMC7721 cells assessed as reduction in cell viability after 72 hrs by MTT assay; assay type: functional, cell-based; conditions: SMMC-7721, 72 h
[2] = Cytotoxicity against human EC109 cells assessed as reduction in cell viability after 72 hrs by MTT assay; assay type: functional, cell-based; conditions: ECa-109, 72 h
MCF7 = assay: Cytotoxicity against human MCF7 cells assessed as reduction in cell viability after 72 hrs by MTT assay; assay type: functional, cell-based; conditions: MCF7, 72 h
[3] = Cytotoxicity against human MGC803 cells assessed as reduction in cell viability after 72 hrs by MTT assay; assay type: functional, cell-based; conditions: MGC-803, 72 h
[4] = Antitumor activity against human MGC803 cells xenografted in nude mouse assessed as reduction in tumor weight at 30 mg/kg, po qd for 28 days relative to control; assay type: functional, MGC-803; parameters: scale not given: the % may be the effect or the level left

Compound | IC50 [1] | IC50 [2] | IC50 (MCF7) | IC50 [3] | Activity [4]
CC(C)=C1C(=O)N(c2ccc(Cl)cc2)N(c2ccc(Cl)cc2)C1=O | 45.6 µM | 42.1 µM | 39.6 µM | 39 µM | 
O=C1C(=Cc2ccc(F)cc2)C(=O)N(c2ccc(Cl)cc2)N1c1ccc(Cl)cc1 | 23.3 µM | 35.6 µM | 31.4 µM | 26 µM | 
O=C1C(=Cc2cccc(Cl)c2)C(=O)N(c2ccc(Cl)cc2)N1c1ccc(Cl)cc1 | 20.2 µM | 22.6 µM | 18.3 µM | 14.4 µM | 
COc1cccc(C=C2C(=O)N(c3ccc(Cl)cc3)N(c3ccc(Cl)cc3)C2=O)c1 | 30.2 µM | 29 µM | 18.1 µM | 26.6 µM | 
CCC(C)=C1C(=O)N(c2ccc(Cl)cc2)N(c2ccc(Cl)cc2)C1=O | 49.2 µM | 41.1 µM | 41.6 µM | 66.5 µM | 
CC(=C1C(=O)N(c2ccc(Cl)cc2)N(c2ccc(Cl)cc2)C1=O)c1ccc(O)cc1 | 57 µM | 55.6 µM | 76.5 µM | 42.8 µM | 
O=C1C(=Cc2ccccc2)C(=O)N(c2ccc(Cl)cc2)N1c1ccc(Cl)cc1 | 26.2 µM | 32.7 µM | 20.2 µM | 27.2 µM | 
O=C1C(=Cc2ccc(Cl)cc2Cl)C(=O)N(c2ccc(Cl)cc2)N1c1ccc(Cl)cc1 | > 128 µM | 60.2 µM | > 128 µM | > 128 µM | 
O=c1[nH]cc(F)c(=O)[nH]1 [FLUOROURACIL] | 14.2 µM | 15.9 µM | 13.5 µM | 9.2 µM | 
O=C1C(=Cc2ccc(Br)cc2)C(=O)N(c2ccc(Cl)cc2)N1c1ccc(Cl)cc1 | 16.6 µM | 12.3 µM | 30.4 µM | 16.9 µM | 
COc1cc(C=C2C(=O)N(c3ccc(Cl)cc3)N(c3ccc(Cl)cc3)C2=O)cc(OC)c1OC | 29.5 µM | 10.1 µM | 16.2 µM | 17.3 µM | 
O=C1C(=Cc2ccc(Cl)cc2)C(=O)N(c2ccc(Cl)cc2)N1c1ccc(Cl)cc1 | 30.9 µM | 17.3 µM | 28.5 µM | 32.6 µM | 
COc1cccc(C=C2C(=O)N(c3ccc(Cl)cc3)N(c3ccc(Cl)cc3)C2=O)c1O | 64.9 µM | 39 µM | 26.7 µM | 24.3 µM | 
COc1cccc(C=C2C(=O)N(c3ccc(Cl)cc3)N(c3ccc(Cl)cc3)C2=O)c1OC | 14.1 µM | 6.8 µM | 11.9 µM | 29.6 µM | 
COc1ccccc1C=C1C(=O)N(c2ccc(Cl)cc2)N(c2ccc(Cl)cc2)C1=O | 25.8 µM | 30.4 µM | 26.3 µM | 28.6 µM | 
COc1ccc(C=C2C(=O)N(c3ccc(Cl)cc3)N(c3ccc(Cl)cc3)C2=O)cc1 | > 128 µM | > 128 µM | > 128 µM | > 128 µM | 
COc1ccc(C=C2C(=O)N(c3ccc(Cl)cc3)N(c3ccc(Cl)cc3)C2=O)cc1OC | > 128 µM | > 128 µM | > 128 µM | > 128 µM | 
CN(C)c1ccc(C=C2C(=O)N(c3ccc(Cl)cc3)N(c3ccc(Cl)cc3)C2=O)cc1 | > 128 µM | > 128 µM | > 128 µM | 80.2 µM | 
O=C1C(=Cc2ccco2)C(=O)N(c2ccc(Cl)cc2)N1c1ccc(Cl)cc1 | 19.5 µM | 14.3 µM | 20.3 µM | 12.8 µM | 
O=C1C(=Cc2c[nH]c3ccccc23)C(=O)N(c2ccc(Cl)cc2)N1c1ccc(Cl)cc1 | 19.6 µM | 23.4 µM | 34.2 µM | 21.8 µM | 
CCCCCOC(=O)Nc1nc(=O)n([C@@H]2O[C@H](C)[C@@H](O)[C@H]2O)cc1F [CAPECITABINE] |  |  |  |  | 62.7%
O=C1C(=Cc2ccc(F)c(F)c2)C(=O)N(c2ccc(Cl)cc2)N1c1ccc(Cl)cc1 | 35.8 µM | 13.1 µM | 22 µM | 35.7 µM | 
COc1cc(C=C2C(=O)N(c3ccc(Cl)cc3)N(c3ccc(Cl)cc3)C2=O)ccc1O | 64.9 µM | 7.1 µM | 22.8 µM | 21.8 µM | 
O=C1C(=Cc2ccc(O)cc2)C(=O)N(c2ccc(Cl)cc2)N1c1ccc(Cl)cc1 | 20.6 µM | 34.2 µM | 23.2 µM | 19.5 µM | 
